Legend:
Type in all cases: binding
AGTR2 = molecular target: T1, AGTR2 (Homo sapiens, UniProt P50052); assay: NanoBRET screen HiBiT-AGTR2 in HEK293; details: AGTR2
T1 construct: purchased Promega (in-house HiBiT-GPCR construct library, NanoBRET)
T1 sequence (P50052 1-363): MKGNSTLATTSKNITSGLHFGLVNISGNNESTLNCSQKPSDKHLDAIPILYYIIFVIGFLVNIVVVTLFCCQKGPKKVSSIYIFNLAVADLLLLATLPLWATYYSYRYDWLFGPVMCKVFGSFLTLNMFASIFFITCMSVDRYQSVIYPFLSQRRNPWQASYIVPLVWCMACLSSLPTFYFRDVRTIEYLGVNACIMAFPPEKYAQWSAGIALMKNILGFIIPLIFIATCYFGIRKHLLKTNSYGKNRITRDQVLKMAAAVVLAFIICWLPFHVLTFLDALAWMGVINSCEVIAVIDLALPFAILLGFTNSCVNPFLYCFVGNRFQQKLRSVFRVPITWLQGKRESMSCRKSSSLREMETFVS
Protocol: (§1) Each tracer candidate was screened across the entire library of HiBiT-GPCR constructs using NanoBRET as the detection modality. As depicted in Figure 4A, the specificity of interactions was evaluated through decrease in BRET due to competitive displacement of a bound tracer by excess parental compound. Each tracer was analyzed for binding to each HiBiT-GPCR fusion in the absence and in the presence of competing parental compound. Briefly, HEK293 cells were transfected with HiBiT-GPCR constructs diluted into promoterless DNA to reduce expression and maximize translocation to the cell surface. Each tracer candidate was then screened at concentrations of 1 μM and 0.1 μM across cells expressing these fusions. Cells were treated for 1.5 h with tracer either alone or in the presence of 20 μM competing parental compound (i.e., control). BRET was measured upon addition of purified LgBiT and subsequent complementation with HiBiT genetically fused to a GPCR. The specificity of interactions was assessed through a decrease in BRET signal due to competitive displacement of the bound tracer. To further gauge the robustness of these interactions, the fold response over the control (i.e., BRETtracer/BRETcontrol) was calculated. We chose a 1.5-fold response, which translates to ≥7-fold signal over noise as the minimal threshold required to score an interaction as positive. […]. Below we highlight the screening results obtained for our exemplary fluorescent tracers based on Clozapine, Amitriptyline and AZD1283.
(§2) HiBiT-GPCR DNA constructs were diluted in 10 mM Tris pH 8 to a final concentration of 0.01 μg/μL, arrayed in 96-well plates and stored at −20 °C. For transfection, HEK293 cells were suspended in Opti-MEM (without phenol red) supplemented with 2% fetal bovine serum (Seradigm) and 100 units/mL penicillin–streptomycin (Gibco) at a final concentration of 220,000 cells/mL and dispensed into white 96-well plates at 90 μL/well. Subsequent transfections and screens were carried using an Agilent Bravo Automated Liquid Handling Platform. First, the 96-well HiBiT DNA arrays were diluted 25-fold in Opti-MEM (without serum or phenol red) to a final concentration of 0.0004 μg/μL and 20 μL of the diluted DNAs were transferred into new 96-well plates. Next, promoterless carrier DNA (1 μg/μL) was diluted 25-fold (0.04 μg/μL) and then dispensed into the diluted arrays at 20 μL/well. Following brief mixing, Viafect transfection reagent (Promega) diluted 16-fold into Opti-MEM was dispensed into the plates at 40 μL/well. After mixing by pipetting, plates were incubated for 10 min on the pipetting station deck. The DNA-transfection reagent complexes were then added to plates containing cells. To facilitate the screen, 10 μL of DNA-transfection reagent complexes were added in duplicates to the top 4 and bottom 4 rows, resulting in two identical 48-well arrays per plate. Plates with transfected cells were incubated for 18–20 h at 37 °C/5% CO2. A screen of each tracer across the entire library using two different concentrations requires duplicate plates of transfected cells. Depending on the number of tracers being screened, transfections can be scaled up using the same ratios. The next day, for each tracer, four 20× screening solutions in tracer dilution buffer (Promega) were prepared: two duplicates at final concentration of 20 μM and two duplicates at a final concentration of 2 μM. A competing unmodified compound was added to one of each duplicate at a final concentration of 400 μM. The four resulting solutions were diluted 4-fold in Opti-MEM without serum or phenol red to generate 5× solutions (5 µM and 0.5 µM tracer +/− 100 μM competing compound). To screen the library, a BioTek MultiFlo FX liquid dispenser was used to dispense 22.5 µL of tracer solution to the top 4 rows and 22.5 µL tracer + competing compound solution to the 4 bottom rows. Plates were briefly mixed on an orbital shaker and incubated for 1.5 h at room temperature. […]

CCR2 = molecular target: T2, CCR2 (Homo sapiens, UniProt P41597); assay: NanoBRET screen HiBiT-CCR2 in HEK293; details: CCR2
T2 construct: purchased Promega (in-house HiBiT-GPCR construct library, NanoBRET)
T2 sequence (P41597 whole entry): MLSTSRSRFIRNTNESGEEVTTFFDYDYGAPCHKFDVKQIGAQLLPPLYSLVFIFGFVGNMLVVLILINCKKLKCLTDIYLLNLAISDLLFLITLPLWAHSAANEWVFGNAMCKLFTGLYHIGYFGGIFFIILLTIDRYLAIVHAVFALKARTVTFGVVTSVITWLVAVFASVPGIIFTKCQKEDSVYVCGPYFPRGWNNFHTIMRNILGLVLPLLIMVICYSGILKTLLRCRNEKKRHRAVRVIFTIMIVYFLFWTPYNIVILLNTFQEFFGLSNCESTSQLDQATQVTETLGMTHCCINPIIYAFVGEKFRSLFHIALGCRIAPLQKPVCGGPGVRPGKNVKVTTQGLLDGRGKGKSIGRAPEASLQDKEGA
Protocol: as §1, §2

CCR5 = molecular target: T3, CCR5 (Homo sapiens, UniProt P51681); assay: NanoBRET screen HiBiT-CCR5 in HEK293; details: CCR5
T3 construct: purchased Promega (in-house HiBiT-GPCR construct library, NanoBRET)
T3 sequence (P51681 whole entry): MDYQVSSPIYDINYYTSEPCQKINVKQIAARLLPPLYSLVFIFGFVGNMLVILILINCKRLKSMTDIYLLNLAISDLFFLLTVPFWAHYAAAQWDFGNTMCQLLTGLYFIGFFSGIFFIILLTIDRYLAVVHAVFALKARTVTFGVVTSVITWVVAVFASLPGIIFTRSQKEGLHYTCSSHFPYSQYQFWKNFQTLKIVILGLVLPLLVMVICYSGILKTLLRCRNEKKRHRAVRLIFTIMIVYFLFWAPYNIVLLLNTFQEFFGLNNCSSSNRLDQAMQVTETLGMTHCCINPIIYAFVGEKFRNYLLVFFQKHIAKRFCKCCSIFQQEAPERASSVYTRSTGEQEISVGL
Protocol: as §1, §2

OXTR = molecular target: T4, OXTR (Homo sapiens, UniProt P30559); assay: NanoBRET screen HiBiT-OXTR in HEK293; details: OXTR
T4 construct: purchased Promega (in-house HiBiT-GPCR construct library, NanoBRET)
T4 sequence (P30559 1-389): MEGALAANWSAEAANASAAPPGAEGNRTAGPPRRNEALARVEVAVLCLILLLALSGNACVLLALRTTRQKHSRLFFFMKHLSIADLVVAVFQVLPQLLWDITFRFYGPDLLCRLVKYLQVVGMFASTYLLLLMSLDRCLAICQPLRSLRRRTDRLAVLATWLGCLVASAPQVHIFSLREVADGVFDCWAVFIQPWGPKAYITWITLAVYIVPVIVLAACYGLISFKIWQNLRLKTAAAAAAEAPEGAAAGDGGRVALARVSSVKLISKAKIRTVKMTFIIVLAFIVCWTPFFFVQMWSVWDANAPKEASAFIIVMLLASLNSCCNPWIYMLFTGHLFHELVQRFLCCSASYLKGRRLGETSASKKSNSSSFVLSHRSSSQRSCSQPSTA
Protocol: as §1, §2

COc1ccccc1N1CCN(CCCCN2C(=O)c3ccc(CNC(=O)CCOCCNC(=O)c4ccc(CNC(=O)CCc5ccc6n5[B-](F)(F)[N+]5=C(c7ccc[nH]7)C=CC5=C6)cc4)cc3C2=O)CC1 [NAN-190-3-NB590]
NanoBRET Fold Response (AGTR2; tracer 0.1μM): 0.99
NanoBRET Fold Response (AGTR2; tracer 1μM): 0.90
NanoBRET Fold Response (CCR2; tracer 0.1μM): 0.82
NanoBRET Fold Response (CCR2; tracer 1μM): 0.94
NanoBRET Fold Response (CCR5; tracer 0.1μM): 0.95
NanoBRET Fold Response (CCR5; tracer 1μM): 1.03
NanoBRET Fold Response (OXTR; tracer 0.1μM): 1.10
NanoBRET Fold Response (OXTR; tracer 1μM): 1.05

O=C(CCc1ccc2n1[B-](F)(F)[N+]1=C(c3ccc[nH]3)C=CC1=C2)NCc1ccc(C(=O)NCCOCCC(=O)N[C@@H]2CC[C@@]3(O)[C@H]4Cc5ccc(O)c6c5[C@@]3(CCN4CC3CC3)[C@H]2O6)cc1 [Naltrexone-3-NB590]
NanoBRET Fold Response (AGTR2; tracer 0.1μM): 1.23
NanoBRET Fold Response (AGTR2; tracer 1μM): 0.67
NanoBRET Fold Response (CCR2; tracer 0.1μM): 1.12
NanoBRET Fold Response (CCR2; tracer 1μM): 0.70
NanoBRET Fold Response (CCR5; tracer 0.1μM): 1.21
NanoBRET Fold Response (CCR5; tracer 1μM): 1.11
NanoBRET Fold Response (OXTR; tracer 0.1μM): 0.99
NanoBRET Fold Response (OXTR; tracer 1μM): 0.91

Cc1cc2c(s1)Nc1ccccc1N=C2N1CCN(CCCNC(=O)CCOCCOCCOCCOCCNC(=O)CCc2ccc3n2[B-](F)(F)[N+]2=C(c4ccc[nH]4)C=CC2=C3)CC1 [Olanzapine-a-2-NB590]
NanoBRET Fold Response (AGTR2; tracer 0.1μM): 1.12
NanoBRET Fold Response (AGTR2; tracer 1μM): 0.87
NanoBRET Fold Response (CCR2; tracer 0.1μM): 1.00
NanoBRET Fold Response (CCR2; tracer 1μM): 0.59
NanoBRET Fold Response (CCR5; tracer 0.1μM): 1.00
NanoBRET Fold Response (CCR5; tracer 1μM): 0.89
NanoBRET Fold Response (OXTR; tracer 0.1μM): 1.00
NanoBRET Fold Response (OXTR; tracer 1μM): 0.96

O=C(CCc1ccc2n1[B-](F)(F)[N+]1=C(c3ccc[nH]3)C=CC1=C2)NCc1ccc(C(=O)NCCOCCOCCNCC(O)COc2cccc3ccccc23)cc1 (stereo not drawn) [Propranolol-3-NB590]
NanoBRET Fold Response (AGTR2; 0.1μM): 0.95
NanoBRET Fold Response (AGTR2; 1μM): 0.99
NanoBRET Fold Response (CCR2; 0.1μM): 0.99
NanoBRET Fold Response (CCR2; 1μM): 1.19
NanoBRET Fold Response (CCR5; 0.1μM): 1.09
NanoBRET Fold Response (CCR5; 1μM): 0.96
NanoBRET Fold Response (OXTR; 0.1μM): 1.04
NanoBRET Fold Response (OXTR; 1μM): 0.98

O=C(CCc1ccc2n1[B-](F)(F)[N+]1=C(c3ccc[nH]3)C=CC1=C2)NCCOCCOCCNC(=O)OCCOCCN1CCN(C2=Nc3ccccc3Sc3ccccc32)CC1 [Quetiapine-a-2-NB590]
NanoBRET Fold Response (AGTR2; tracer 0.1μM): 1.08
NanoBRET Fold Response (AGTR2; tracer 1μM): 1.05
NanoBRET Fold Response (CCR2; tracer 0.1μM): 1.00
NanoBRET Fold Response (CCR2; tracer 1μM): 0.88
NanoBRET Fold Response (CCR5; tracer 0.1μM): 0.95
NanoBRET Fold Response (CCR5; tracer 1μM): 0.85
NanoBRET Fold Response (OXTR; tracer 0.1μM): 1.10
NanoBRET Fold Response (OXTR; tracer 1μM): 0.82

Cc1nc2n(c(=O)c1CCN1CCC(c3noc4cc(F)ccc34)CC1)CCCC2OC(=O)NCCOCCOCCOCCOCCNC(=O)CCc1ccc2n1[B-](F)(F)[N+]1=C(c3ccc[nH]3)C=CC1=C2 (stereo not drawn) [Risperidone-2-NB590]
NanoBRET Fold Response (AGTR2; tracer 0.1μM): 1.10
NanoBRET Fold Response (AGTR2; tracer 1μM): 0.94
NanoBRET Fold Response (CCR2; tracer 0.1μM): 1.01
NanoBRET Fold Response (CCR2; tracer 1μM): 1.16
NanoBRET Fold Response (CCR5; tracer 0.1μM): 0.96
NanoBRET Fold Response (CCR5; tracer 1μM): 0.90
NanoBRET Fold Response (OXTR; tracer 0.1μM): 0.97
NanoBRET Fold Response (OXTR; tracer 1μM): 0.97

CC(C)N(CC[C@H](c1ccccc1)c1cc(CCNC(=O)CCOCCOCCOCCOCCNC(=O)CCc2ccc3n2[B-](F)(F)[N+]2=C(c4ccc[nH]4)C=CC2=C3)ccc1O)C(C)C [Tolterodine-2-NB590]
NanoBRET Fold Response (AGTR2; tracer 0.1μM): 1.10
NanoBRET Fold Response (AGTR2; tracer 1μM): 1.07
NanoBRET Fold Response (CCR2; tracer 0.1μM): 1.20
NanoBRET Fold Response (CCR2; tracer 1μM): 0.98
NanoBRET Fold Response (CCR5; tracer 0.1μM): 1.03
NanoBRET Fold Response (CCR5; tracer 1μM): 1.01
NanoBRET Fold Response (OXTR; tracer 0.1μM): 0.97
NanoBRET Fold Response (OXTR; tracer 1μM): 0.94

CC(C)N(CC[C@H](c1ccccc1)c1cc(CCNC(=O)c2ccc(CNC(=O)CCc3ccc4n3[B-](F)(F)[N+]3=C(c5ccc[nH]5)C=CC3=C4)cc2)ccc1O)C(C)C [Tolterodine-BZ-NB590]
NanoBRET Fold Response (AGTR2; tracer 0.1μM): 0.96
NanoBRET Fold Response (AGTR2; tracer 1μM): 0.95
NanoBRET Fold Response (CCR2; tracer 0.1μM): 0.99
NanoBRET Fold Response (CCR2; tracer 1μM): 0.89
NanoBRET Fold Response (CCR5; tracer 0.1μM): 1.09
NanoBRET Fold Response (CCR5; tracer 1μM): 0.97
NanoBRET Fold Response (OXTR; tracer 0.1μM): 1.02
NanoBRET Fold Response (OXTR; tracer 1μM): 1.01

CCCn1c(=O)c2[nH]c(-c3ccc(OCC(=O)NCCNC(=O)CCOCCNC(=O)c4ccc(CNC(=O)CCc5ccc6n5[B-](F)(F)[N+]5=C(c7ccc[nH]7)C=CC5=C6)cc4)cc3)nc2n(CCC)c1=O [XAC-3-NB590]
NanoBRET Fold Response (AGTR2; tracer 0.1μM): 1.24
NanoBRET Fold Response (AGTR2; tracer 1μM): 1.09
NanoBRET Fold Response (CCR2; tracer 0.1μM): 1.08
NanoBRET Fold Response (CCR2; tracer 1μM): 1.61
NanoBRET Fold Response (CCR5; tracer 0.1μM): 0.83
NanoBRET Fold Response (CCR5; tracer 1μM): 0.86
NanoBRET Fold Response (OXTR; tracer 0.1μM): 1.04
NanoBRET Fold Response (OXTR; tracer 1μM): 0.98

From PMC8151276, “An Integrated Approach toward NanoBRET Tracers for Analysis of GPCR Ligand Engagement” (Molecules, 2021)
